In assay [1] the test system is KATO-III cell line (FGFR2 amplification). Description: Cancer cell line cell viability assay (Cell Titer-Glo), 72 hr. The class given is cell-based. The following applies: Homo sapiens, KATO III. Put shortly: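 5,000-20,000 cells/well o/n; cpd 9-pt 4x dil from 3 μM, n=3; 37° C/5% CO2; CTG 2.0 lumi; % DMSO ctrl; 4PL IC50.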
Assay [2] has as its system KG-1 cell line (FGFR 1-fusion). The assay is described as above. The note with it: Homo sapiens, KG-1, KG-1 cell line (FGFR1-fusion). Type of assay: cell-based. Put shortly:
(§1)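 Cells were seeded at 5,000–20,000 per well, then exposed to a 9-point, 4-fold dilution series from 3 μM top concentration in triplicate at 37° C. Exposure was 120 h for MDA-MB-453 and HuH7 and 72 h for KG-1 and RT112/84. Viability was read as ATP by Cell Titer-Glo 2.0, expressed as % of DMSO control, and fitted by 4-parameter IC50.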

Assay [3] relates to RT112/84 cell line (FGFR3-fusion). The description is as above. The following applies: Homo sapiens, RT112/84, RT112/84 cell line (FGFR3-fusion). Type of assay: cell-based. The method in brief:
as §1

Assay [4] deals with T1, FGFR3 (V555M) (Homo sapiens, UniProt P22607, V555M).
T1 construct: made in house; host or cells: E. coli (BL21-derived), T7 phage
T1 sequence (P22607 23-806 V555M): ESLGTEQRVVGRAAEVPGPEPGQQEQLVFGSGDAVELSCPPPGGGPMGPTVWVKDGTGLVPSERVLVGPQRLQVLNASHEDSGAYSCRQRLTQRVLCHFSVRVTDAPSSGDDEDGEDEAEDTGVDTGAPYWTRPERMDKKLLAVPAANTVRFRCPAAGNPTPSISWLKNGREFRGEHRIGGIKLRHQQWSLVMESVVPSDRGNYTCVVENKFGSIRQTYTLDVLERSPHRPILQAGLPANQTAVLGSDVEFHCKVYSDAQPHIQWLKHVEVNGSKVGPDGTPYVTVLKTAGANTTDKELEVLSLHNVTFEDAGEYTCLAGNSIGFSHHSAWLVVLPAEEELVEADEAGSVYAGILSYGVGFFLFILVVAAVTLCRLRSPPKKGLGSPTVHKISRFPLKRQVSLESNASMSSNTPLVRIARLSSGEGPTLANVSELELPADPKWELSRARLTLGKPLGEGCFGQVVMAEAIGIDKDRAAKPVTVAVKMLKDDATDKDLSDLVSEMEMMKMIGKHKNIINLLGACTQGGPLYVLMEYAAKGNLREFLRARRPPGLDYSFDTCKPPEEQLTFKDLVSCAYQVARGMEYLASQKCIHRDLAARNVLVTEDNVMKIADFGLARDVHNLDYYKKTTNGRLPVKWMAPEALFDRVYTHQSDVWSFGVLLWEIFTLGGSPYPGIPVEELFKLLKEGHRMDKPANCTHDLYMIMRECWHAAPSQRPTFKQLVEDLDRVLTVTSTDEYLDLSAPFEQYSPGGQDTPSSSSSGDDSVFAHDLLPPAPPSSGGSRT
Description: Kinase binding assay (kinase-tagged T7 phage, affinity beads, qPCR), Kd. The following applies: V555M mutant; read-out: FGFR3 (V555M) (Kd nM). Put shortly: (§2)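 Competition binding of compounds against kinase-tagged T7 phage captured on immobilised biotinylated ligand beads; bead-bound kinase quantified by qPCR of eluates. 11-point 3-fold dilution, 0.9% DMSO final; Kd from Hill fit with slope fixed at −1.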
(In general: In qPCR the cycle at which signal appears reflects the starting amount.)

Assay [5] addresses T2, FGFR4 (Homo sapiens, UniProt P22455).
T2 construct: made in house; host or cells: E. coli (BL21-derived), T7 phage
The assay is described as above. The following applies: read-out: FGFR4 (Kd nM). The method in brief: as §2

In assay [6] the target is T3, FGFR1 (Homo sapiens, UniProt P11362).
T3 construct: made in house; host or cells: E. coli (BL21-derived), T7 phage
T3 sequence (P11362 22-822): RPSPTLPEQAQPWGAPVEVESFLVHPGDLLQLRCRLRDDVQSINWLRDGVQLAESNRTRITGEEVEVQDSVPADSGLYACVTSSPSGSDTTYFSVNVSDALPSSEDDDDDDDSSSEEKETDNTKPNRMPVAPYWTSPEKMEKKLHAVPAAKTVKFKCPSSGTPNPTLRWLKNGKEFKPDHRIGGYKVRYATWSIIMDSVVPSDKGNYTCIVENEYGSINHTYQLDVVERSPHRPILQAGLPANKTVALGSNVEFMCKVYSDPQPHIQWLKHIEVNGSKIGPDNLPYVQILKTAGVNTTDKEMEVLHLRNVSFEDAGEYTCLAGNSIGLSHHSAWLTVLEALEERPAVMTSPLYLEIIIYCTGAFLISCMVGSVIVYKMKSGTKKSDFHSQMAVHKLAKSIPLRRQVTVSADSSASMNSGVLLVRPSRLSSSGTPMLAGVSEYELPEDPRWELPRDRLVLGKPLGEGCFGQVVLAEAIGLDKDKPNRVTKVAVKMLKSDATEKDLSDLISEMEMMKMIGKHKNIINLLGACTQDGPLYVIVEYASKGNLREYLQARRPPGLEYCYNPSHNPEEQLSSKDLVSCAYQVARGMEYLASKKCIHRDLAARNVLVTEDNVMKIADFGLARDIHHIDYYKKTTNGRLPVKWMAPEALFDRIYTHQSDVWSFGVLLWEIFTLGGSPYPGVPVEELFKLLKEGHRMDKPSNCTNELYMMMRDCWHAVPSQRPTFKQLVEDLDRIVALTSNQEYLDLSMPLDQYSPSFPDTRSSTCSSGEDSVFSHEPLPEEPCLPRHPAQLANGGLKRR
The description is as above. The note with it: read-out: FGFR1 (Kd nM). The method in brief:
as §2

Assay [7] has as its target T4, FGFR2 (Homo sapiens, UniProt P21802).
T4 construct: made in house; host or cells: E. coli (BL21-derived), T7 phage
The description is as above. The following applies: read-out: FGFR2 (Kd nM). The method in brief: as §2

In assay [8] the target is T5, FGFR3 (Homo sapiens, UniProt P22607).
T5 construct: made in house; host or cells: E. coli (BL21-derived), T7 phage
T5 sequence (P22607 23-806): as the sequence (P22607 23-806 V555M) above, with M533V counted along it
Described as above. The following applies: read-out: FGFR3 (Kd nM). Put shortly:
as §2

Assay [9] has as its system HuH7 cell line (FGF19 amplification). Description: Cancer cell line cell viability assay (Cell Titer-Glo), 120 hr. Type of assay: cell-based. The note with it: Homo sapiens, Huh-7. Put shortly: as §1
In general terms: ATP-based viability assays read luminescence as a measure of living cells.

SMILES strings stand for the structures.

For orientation: IC50 means the concentration needed to halve the response being measured. In general, Kd refers to the concentration at which binding is half-saturated.

T4 sequence (P21802 22-821): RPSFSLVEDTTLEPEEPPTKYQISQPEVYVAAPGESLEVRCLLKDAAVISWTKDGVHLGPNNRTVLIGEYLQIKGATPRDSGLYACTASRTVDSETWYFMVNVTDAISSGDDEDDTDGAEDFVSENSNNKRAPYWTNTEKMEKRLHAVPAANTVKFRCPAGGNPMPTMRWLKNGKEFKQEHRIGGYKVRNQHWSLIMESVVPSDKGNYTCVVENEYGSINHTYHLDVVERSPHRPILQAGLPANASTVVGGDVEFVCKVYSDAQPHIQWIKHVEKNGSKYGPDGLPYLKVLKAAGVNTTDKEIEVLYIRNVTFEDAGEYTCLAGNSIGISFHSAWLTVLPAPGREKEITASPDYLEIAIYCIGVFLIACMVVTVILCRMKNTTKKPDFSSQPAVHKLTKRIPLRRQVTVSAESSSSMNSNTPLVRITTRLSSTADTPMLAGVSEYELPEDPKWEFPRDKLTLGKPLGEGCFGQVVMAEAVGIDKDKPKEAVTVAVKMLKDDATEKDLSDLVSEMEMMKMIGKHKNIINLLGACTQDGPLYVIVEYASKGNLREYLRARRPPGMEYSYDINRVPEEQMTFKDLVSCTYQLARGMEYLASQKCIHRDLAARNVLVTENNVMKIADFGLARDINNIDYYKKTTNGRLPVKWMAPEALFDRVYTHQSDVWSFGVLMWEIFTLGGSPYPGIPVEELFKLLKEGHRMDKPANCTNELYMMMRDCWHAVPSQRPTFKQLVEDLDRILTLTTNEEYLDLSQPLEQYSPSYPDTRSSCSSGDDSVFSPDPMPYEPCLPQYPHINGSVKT
T2 sequence (P22455 22-802): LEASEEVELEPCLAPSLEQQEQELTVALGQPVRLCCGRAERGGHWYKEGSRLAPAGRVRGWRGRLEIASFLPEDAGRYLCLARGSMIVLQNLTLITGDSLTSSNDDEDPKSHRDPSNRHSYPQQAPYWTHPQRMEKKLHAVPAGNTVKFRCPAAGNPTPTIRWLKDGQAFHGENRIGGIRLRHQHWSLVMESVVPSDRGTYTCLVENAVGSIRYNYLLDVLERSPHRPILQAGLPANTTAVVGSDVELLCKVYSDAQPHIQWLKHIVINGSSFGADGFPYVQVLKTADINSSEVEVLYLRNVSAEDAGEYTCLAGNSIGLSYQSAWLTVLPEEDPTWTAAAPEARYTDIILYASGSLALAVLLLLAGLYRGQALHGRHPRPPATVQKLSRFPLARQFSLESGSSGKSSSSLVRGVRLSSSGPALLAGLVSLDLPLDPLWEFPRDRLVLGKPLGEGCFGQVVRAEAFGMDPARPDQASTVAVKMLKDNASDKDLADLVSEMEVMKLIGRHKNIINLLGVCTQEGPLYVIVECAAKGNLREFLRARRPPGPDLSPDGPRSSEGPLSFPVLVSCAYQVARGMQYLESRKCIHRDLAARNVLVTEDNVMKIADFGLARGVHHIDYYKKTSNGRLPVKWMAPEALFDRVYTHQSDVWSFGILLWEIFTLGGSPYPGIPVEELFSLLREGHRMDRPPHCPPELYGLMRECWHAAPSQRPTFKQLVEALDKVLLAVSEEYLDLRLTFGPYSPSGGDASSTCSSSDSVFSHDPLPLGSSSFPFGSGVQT

As to `C[C@@H](Oc1ccc2[nH]nc(-c3cnc(N4CC(C)(NCC(F)F)C4)c(C#N)c3)c2c1)c1c(Cl)cncc1Cl` [Example 22, (R)-5-(5-(1-(3,5-dichloropyridin-4-yl)ethoxy)-1H-indazol-3-yl)-2-(3-((2,2-difluoroethyl)amino)-3-methylazetidin-1-yl)nicotinonitrile], the half-maximal inhibitory concentration (IC50) fell in the range of 200 to 1000 nM in assay [1], 200 to 1000 nM in assay [2], 50 to 200 nM in assay [3] and 0.1 to 50 nM in assay [9]. Besides, the dissociation constant Kd in assay [4] fell in the range of 1 to 50 nM; in assay [5], 1 to 50 nM; in assay [6], 50 to 300 nM; in [7] it was 50 to 300 nM; in assay [8], 1 to 50 nM.

Turning to `C[C@@H](Oc1ccc2[nH]nc(-c3cnc(N4CC(C)(CN(C)S(C)(=O)=O)C4)c(C#N)c3)c2c1)c1c(Cl)cncc1Cl` [Example 23, (R)-N-((1-(3-cyano-5-(5-(1-(3,5-dichloropyridin-4-yl)ethoxy)-1H-indazol-3-yl)pyridin-2-yl)-3-methylazetidin-3-yl)methyl)-N-methylmethanesulfona-mide], the half-inhibitory concentration (IC50) was 200 to 1000 nM in assay [1], 200 to 1000 nM in assay [2], 50 to 200 nM in assay [3] and 0.1 to 50 nM in assay [9]. The Kd in [4], in assay [5], in [6], in assay [7] and in assay [8] was 1 to 50 nM throughout.

Consider `COc1cc2[nH]nc(-c3cnc(N4CC(C)(N[C@H]5CCOC5)C4)c(C#N)c3)c2cc1O[C@H](C)c1c(Cl)cncc1Cl` [Example 24, 5-(5-((R)-1-(3,5-dichloropyridin-4-yl)ethoxy)-6-methoxy-1H-indazol-3-yl)-2-(3-methyl-3-(((S)-tetrahydrofuran-3-yl)amino)azetidin-1-yl)nicotinonitrile], for which the concentration for half-maximal inhibition (IC50) was in the range of 50 to 200 nM in [1], 50 to 200 nM in [2], 0.1 to 50 nM in assay [3] and 0.1 to 50 nM in assay [9]. The equilibrium dissociation constant (Kd) in [4], in [5], in assay [6], in assay [7] and in [8] was 1 to 50 nM throughout.

Take `COc1cc2[nH]nc(-c3cnc(N4CC(C)(N[C@@H]5CCOC5)C4)c(C#N)c3)c2cc1O[C@H](C)c1c(Cl)cncc1Cl` [Example 25, 5-(5-((R)-1-(3,5-dichloropyridin-4-yl)ethoxy)-6-methoxy-1H-indazol-3-yl)-2-(3-methyl-3-(((R)-tetrahydrofuran-3-yl)amino)azetidin-1-yl)nicotinonitrile]: the IC50 in [1] is 50 to 200 nM; in [2] it was 50 to 200 nM; in assay [3], 0.1 to 50 nM; in assay [9] it was 0.1 to 50 nM. For the same compound, the dissociation constant Kd in [4], in assay [5], in [6], in assay [7] and in [8] was 1 to 50 nM each time.

In the case of `COc1cc2[nH]nc(-c3cnc(N4CC(C)(N5CCC5)C4)c(C#N)c3)c2cc1O[C@H](C)c1c(Cl)cncc1Cl` [Example 26, (R)-5-(5-(1-(3,5-dichloropyridin-4-yl)ethoxy)-6-methoxy-1H-indazol-3-yl)-2-(3′-methyl-[1,3′-biazetidin]-1′-yl)nicotinonitrile], the 50% inhibitory concentration (IC50) lay in the range of 50 to 200 nM in [1], 0.1 to 50 nM in assay [2], 0.1 to 50 nM in [3] and 0.1 to 50 nM in assay [9]. Moreover, the equilibrium dissociation constant (Kd) in assay [4], in assay [5], in [6], in assay [7] and in assay [8] was 1 to 50 nM throughout.

Consider `C[C@@H](Oc1ccc2[nH]nc(-c3cnc(N4CC(C)(NCC5CC5)C4)c(C#N)c3)c2c1)c1c(Cl)cncc1Cl` [Example 27, 2-[3-(Cyclopropylmethylamino)-3-methyl-azetidin-1-yl]-5-[5-[(1R)-1-(3,5-dichloro-4-pyridyl)ethoxy]-1H-indazol-3-yl]pyridine-3-carbonitrile], for which the IC50 in assay [1] was in the range of 200 to 1000 nM; in assay [2], 200 to 1000 nM; in [3] it was 50 to 200 nM; in assay [9] it was 50 to 200 nM. Also, the dissociation constant Kd in assay [4] was in the range of 1 to 50 nM; in assay [5], 1 to 50 nM; in [6], 1 to 50 nM; in assay [7], 50 to 300 nM; in assay [8], 1 to 50 nM.

With `C[C@@H](Oc1ccc2[nH]nc(-c3cnc(N4CC(C)(N5CCC5)C4)c(C#N)c3)c2c1)c1c(Cl)cncc1Cl` [Example 28, (R)-5-(5-(1-(3,5-dichloropyridin-4-yl)ethoxy)-1H-indazol-3-yl)-2-(3′-methyl-[1,3′-biazetidin]-1′-yl)nicotinonitrile], the concentration for half-maximal inhibition (IC50) in [1] fell in the range of 50 to 200 nM; in [2] it was 50 to 200 nM; in [3], 0.1 to 50 nM; in assay [9], 0.1 to 50 nM. The Kd in [4], in assay [5], in assay [6], in assay [7] and in [8] was 1 to 50 nM each time.

With `C[C@@H](Oc1ccc2[nH]nc(-c3cnc(N4CC(C)(N[C@@H]5CCOC5)C4)c(C#N)c3)c2c1)c1c(Cl)cncc1Cl` [Example 33, 5-(5-((R)-1-(3,5-dichloropyridin-4-yl)ethoxy)-1H-indazol-3-yl)-2-(3-methyl-3-(((R)-tetrahydrofuran-3-yl)amino)azetidin-1-yl)nicotinonitrile], the IC50 in assay [1] fell in the range of 50 to 200 nM; in [2], 200 to 1000 nM; in assay [3], 50 to 200 nM; in assay [9], 0.1 to 50 nM. Also, the Kd in assay [4] fell in the range of 1 to 50 nM; in assay [5] it was 1 to 50 nM; in [6], 50 to 300 nM; in assay [7], 1 to 50 nM; in assay [8] it was 1 to 50 nM.

With `C[C@@H](Oc1ccc2[nH]nc(-c3cnc(N4CC(C)(N5CCOCC5)C4)c(C#N)c3)c2c1)c1c(Cl)cncc1Cl` [Example 34, 5-[5-[(1R)-1-(3,5-dichloro-4-pyridyl)ethoxy]-1H-indazol-3-yl]-2-(3-methyl-3-morpholino-azetidin-1-yl)pyridine-3-carbonitrile], the 50% inhibitory concentration (IC50) in assay [1] lay within 200 to 1000 nM; in assay [2], 200 to 1000 nM; in assay [3], 50 to 200 nM; in assay [9], 0.1 to 50 nM. For the same compound, the dissociation constant (Kd) in assay [4] was in the range of 1 to 50 nM; in assay [5], 1 to 50 nM; in assay [6] it was 50 to 300 nM; in assay [7], 50 to 300 nM; in [8], 1 to 50 nM.

On to `COCCNC1(C)CN(c2ncc(-c3n[nH]c4cc(OC)c(O[C@H](C)c5c(Cl)cncc5Cl)cc34)cc2C#N)C1` [Example 37, 5-[5-[(1R)-1-(3,5-dichloro-4-pyridyl)ethoxy]-6-methoxy-1H-indazol-3-yl]-2-[3-(2-methoxyethylamino)-3-methyl-azetidin-1-yl]pyridine-3-carbonitrile], for which the IC50 in assay [1] lay in the range of 50 to 200 nM; in assay [2] it was 50 to 200 nM; in assay [3] it was 0.1 to 50 nM; in [9], 0.1 to 50 nM. For the same compound, the Kd in assay [4], in [5], in assay [6], in assay [7] and in assay [8] was 1 to 50 nM each time.

On to `COc1cc2[nH]nc(-c3cnc(N4CC(C)(NCCC(F)F)C4)c(C#N)c3)c2cc1O[C@H](C)c1c(Cl)cncc1Cl` [Example 41, 5-[5-[(1R)-1-(3,5-dichloro-4-pyridyl)ethoxy]-6-methoxy-1H-indazol-3-yl]-2-[3-(3,3-difluoropropylamino)-3-methyl-azetidin-1-yl]pyridine-3-carbonitrile], for which the half-inhibitory concentration (IC50) in [1] is 50 to 200 nM; in assay [2], 50 to 200 nM; in [3] it was 0.1 to 50 nM; in assay [9], 0.1 to 50 nM. For the same compound, the dissociation constant (Kd) in [4], in assay [5], in [6], in [7] and in [8] was 1 to 50 nM throughout.

As for `COc1cc2[nH]nc(-c3cnc(N4CC(C)(NCC(F)F)C4)c(C#N)c3)c2cc1O[C@H](C)c1c(Cl)cncc1Cl` [Example 42, 5-[5-[(1R)-1-(3,5-dichloro-4-pyridyl)ethoxy]-6-methoxy-1H-indazol-3-yl]-2-[3-(2,2-difluoroethylamino)-3-methyl-azetidin-1-yl]pyridine-3-carbonitrile], the concentration for half-maximal inhibition (IC50) in assay [1] was 50 to 200 nM; in assay [2] it was 50 to 200 nM; in assay [3], 0.1 to 50 nM; in assay [9], 0.1 to 50 nM. Further, the Kd in assay [4], in [5], in [6], in assay [7] and in [8] was 1 to 50 nM in each case.

For the origin of these results see patent publication US20250368666A1, “INDAZOLE COMPOUNDS” (TYRA BIOSCIENCES, INC., priority 2022, published 2025).
